Measurements reported in US4350695A, “Antihistaminic and bronchospasmolytic triazoloquinazolinones” (Roussel Uclaf, priority 1980, dated 1982).
In brackets after ≈: the same amount, converted by molar mass. Where a name gives a salt, the structure may show the parent alone.

Legend:
[1] = tested on: isolated guinea pig tracheas; test: Effect on isolated guinea pig tracheas (histamine-induced contraction); type: cell-based; details: for EC50: Cavia porcellus, spirally cut trachea, Krebs Henseleit solution, 37° C., histamine as agonist, read-out: EC50 (amount required to reduce the histamine-induced contraction of the guinea pig trachea by 50%)
Protocol: B Effect on isolated guinea pig tracheas
Guinea pigs were killed by a blow on the back of the neck and the tracheas were excised, cut spirally and suspended in Krebs Henseleit solution at 37° C. and aerated with 95% O2 +5% CO2. Histamine was used as the agonist.

[2] = tested on: histamine-induced bronchoconstriction; test: Effects on histamine-induced bronchoconstriction in anaesthetised guinea pigs; type: in vivo, guinea pig; details: for ED50: Cavia porcellus, iv, male anaesthetised guinea pigs, administered via cannulated left jugular vein immediately before histamine, read-out: ED50 (effective dose required to reduce the histamine-induced constriction in lung air volume by 50%); for antagonising the bronchoconstricting activity of histamine: anaesthetised guinea pigs, result in words
Protocol: A. Effects on histamine-induced bronchoconstriction in anaesthetised guinea pigs
Male guinea pigs weighing 300-400 grams, after overnight starving, were anaesthetised with intraperitoneal administration of 0.7 ml/100 g of urethane. The preparation was as described by Konsett et al [Arch. exp. Path. Pharmakol. […] (1940), p. 71] with a ventilatory pump stroke volume varying between 4 to 6 ml of air (adjusted for each animal) at a stroke rate of 80 per minute to maintain a lung inflation pressure of 7.5 cm of H2 O. Blood pressure was measured via a cannula in the right carotid artery connected to a Statham blood pressure transducer and a Devices M2 recorder. The test compounds were administered via the cannulated left jugular vein and washed in with 0.1 ml of 0.9% w/w sodium chloride in distilled water. The test product was administered immediately before the histamine which was used as the agonist.
Respiratory changes were recorded via a differential transducer connected to an SE 905 transducer/converter which in turn was connected to a Devices M2 recorder. The results given in Table I show the effective dose of each of the test compounds required to reduce the histamine-induced constriction in lung air volume by 50%.

Row | Compound | EC50 [1] | ED50 [2] | other results
1 | O=c1c2ccccc2nc2n(CCCCN3CCN(c4cccc(Cl)c4)CC3)cnn12 [1 and 2] | – | – | antagonistic effect, persistence ([1]; isolated guinea pig trachea, after compound washed out, result in words): very prolonged; time for which antagonistic effect could be demonstrated after the compound had been washed out ([1]; isolated guinea pig trachea, after wash-out): up to 30 minutes; antagonist of histamine induced contractions ([1]; isolated guinea pig trachea, result in words): potent antagonist
2 | O=c1c2ccccc2nc2n(CCCCN3CCN(c4cccc(Cl)c4)CC3)cnn12 [Example 1 & 2, 1-{4-[4-(m-chlorophenyl)-piperazin-1-yl]-butyl}-triazolo-[1,2,4][5,1-b]-quinazolin-5(1H)-one dihydrochloride] | 0.1 µg/mL | 0.02 mg/kg | antagonising the bronchoconstricting activity of histamine [2]: very effective
3 | CCOC(=O)N1CCN(CCCCn2cnn3c(=O)c4cc(C)ccc4nc23)CC1 [Example 3, 1-{4-[4-(ethoxycarbonyl)-piperazin-1-yl]-butyl}-7-methyl[1,2,4] triazolo [5,1-b]-quinazolin-5(1H)-one dihydrochloride] | – | 0.008 mg/kg | antagonising the bronchoconstricting activity of histamine [2]: very effective
4 | O=c1c2ccccc2nc2n(CCCCN3CCC(O)(c4ccccc4)CC3)cnn12 [Example 4] | 34 µg/mL (≈ 81.4 µM) | 0.3 mg/kg | –
5 | O=c1c2ccccc2nc2n(CCCCN3CCN(C4CCCCC4)CC3)cnn12 [Example 5] | 10.2 µg/mL (≈ 25 µM) | 0.9 mg/kg | –
6 | O=c1c2ccccc2nc2n(CCCN3CCN(c4cccc(Cl)c4)CC3)cnn12 [Example 6] | 0.25 µg/mL (≈ 0.591 µM) | 0.03 mg/kg | –
7 | O=c1c2ccccc2nc2n(CCCN3CCCCC3)cnn12 [Example 7] | 15 µg/mL (≈ 48.2 µM) | 0.3 mg/kg | –
8 | O=c1c2ccccc2nc2n(CCCN3CCC(O)(c4ccccc4)CC3)cnn12 [Example 8] | – | 2 mg/kg | –
9 | O=c1c2cc([N+](=O)[O-])ccc2nc2n(CCCCN3CCN(c4cccc(Cl)c4)CC3)cnn12 [Example 10] | – | 0.1 mg/kg | –
10 | O=c1c2ccccc2nc2n(CCCCCN3CCN(c4cccc(Cl)c4)CC3)cnn12 [Example 11] | – | 0.05 mg/kg | –
11 | O=c1c2ccccc2nc2n(CCCCCN3CCCCC3)cnn12 [Example 12] | 16 µg/mL (≈ 47.1 µM) | 1 mg/kg | –
12 | CCOC(=O)N1CCN(CCCCn2cnn3c(=O)c4ccccc4nc23)CC1 [Example 15, 1-{4-[4-(ethoxycarbonyl)-piperazin-1-yl]-butyl}-[1,2,4]-triazolo-[5,1-b]-quinazolin-5-(1H)-one] | – | 0.05 mg/kg | –
13 | O=c1c2ccccc2nc2n(CCCCN3CCCCC3)cnn12 [Example 24] | 36 µg/mL (≈ 111 µM) | 0.7 mg/kg | –
14 | CCOC(=O)N1CCN(CCCn2cnn3c(=O)c4cc(C)ccc4nc23)CC1 [Example 34, 1-{3-[4-(ethoxycarbonyl)-piperazin-1-yl]-propyl}-7-methyl-[1,2,4]-triazolo-[5,1-b]-quinazolin-5-(1H)-one] | – | 0.01 mg/kg | –
